Test results taken from the supplement of paper PMC10307832.

Legend:
Test in all cases: relative viability (nuclei count vs DMSO), 5 days (fraction); higher = more cells survive
[1] = compound: CCOc1cc2ncc(C#N)c(Nc3ccc(OCc4ccccn4)c(Cl)c3)c2cc1NC(=O)/C=C/CN(C)C [Neratinib] + COc1cc2c(Oc3ccc(NC(=O)C4(C(=O)Nc5ccc(F)cc5)CC4)cc3F)ccnc2cc1OCCCN1CCOCC1 [Foretinib] (partner 0.25 µM)
Procedure, shortened: (§1)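 Lung cancer cell lines in 1536-well plates were dosed by pin tool the day after seeding, either with one drug alone or with a fixed anchor-drug dose plus five library-drug doses (not always all listed) in √10 steps. After 5 days, cells were fixed and their nuclei stained in one step (final 0.05% Triton X-100, 1% formaldehyde, 1 ug/ml Hoechst), then counted on 4× images. Relative viability is the nuclei count in treated wells divided by that in vehicle wells. Values are medians of duplicate plates.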

[2] = compound: CCOc1cc2ncc(C#N)c(Nc3ccc(OCc4ccccn4)c(Cl)c3)c2cc1NC(=O)/C=C/CN(C)C [Neratinib] + Nc1nc2[nH]cc(CCc3ccc(C(=O)N[C@@H](CCC(=O)O)C(=O)O)cc3)c2c(=O)[nH]1 [Pemetrexed] (partner 0.2 µM)
Procedure, shortened: as §1

[3] = compound: CCOc1cc2ncc(C#N)c(Nc3ccc(OCc4ccccn4)c(Cl)c3)c2cc1NC(=O)/C=C/CN(C)C [Neratinib] + COc1cccc2cc(-c3nc([C@H]4CC[C@H](C(=O)O)CC4)n4ncnc(N)c34)[nH]c12 [OSI-027] (partner 0.5 µM)
Procedure, shortened: as §1

[4] = compound: CCOc1cc2ncc(C#N)c(Nc3ccc(OCc4ccccn4)c(Cl)c3)c2cc1NC(=O)/C=C/CN(C)C [Neratinib] + NC(=O)Nc1cc(-c2cccc(F)c2)sc1C(=O)N[C@H]1CCCNC1 [AZD7762] (partner 0.2 µM)
Procedure, shortened: as §1

Cell Line	relative viability ([1]; first compound 0.01 µM)	relative viability ([1]; first compound 0.03162 µM)	relative viability ([1]; first compound 0.1 µM)	relative viability ([1]; first compound 0.3162 µM)	relative viability ([1]; first compound 1 µM)	relative viability ([2]; first compound 0.01 µM)	relative viability ([2]; first compound 0.03162 µM)	relative viability ([2]; first compound 0.1 µM)	relative viability ([2]; first compound 0.3162 µM)	relative viability ([2]; first compound 1 µM)	relative viability ([3]; first compound 0.01 µM)	relative viability ([3]; first compound 0.03162 µM)	relative viability ([3]; first compound 0.1 µM)	relative viability ([3]; first compound 0.3162 µM)	relative viability ([3]; first compound 1 µM)	relative viability ([4]; first compound 0.01 µM)	relative viability ([4]; first compound 0.03162 µM)	relative viability ([4]; first compound 0.1 µM)	relative viability ([4]; first compound 0.3162 µM)	relative viability ([4]; first compound 1 µM)
H3255	0.976	0.425	0.716	0.334	0.17	0.556	0.568	0.469	0.332	0.226	0.559	0.571	0.436	0.212	0.215	1.01	0.824	0.588	0.288	0.247
NCI-H1734	0.953	0.887	0.683	0.775	0.469	0.421	0.467	0.354	0.432	0.492	0.659	0.638	–	0.552	0.331	0.584	0.555	0.457	0.505	0.36
NCI-H23	–	0.686	–	0.942	0.463	0.702	0.641	0.619	0.664	0.499	0.717	0.664	0.561	0.504	0.296	0.253	0.329	0.25	0.217	0.191
PC-14	1.04	0.973	0.862	0.929	0.335	0.128	0.118	0.14	0.141	0.0777	0.739	0.987	0.798	0.177	0.0699	0.366	0.41	0.36	0.242	0.134
NCI-H1437	1.32	1.26	1.18	1.19	1.28	0.329	0.344	0.269	0.275	0.312	0.851	0.886	0.812	0.763	0.759	1.18	1.12	1.05	1.08	0.896
NCI-H647	1.36	1.34	–	1.11	0.601	0.187	0.174	0.19	0.156	0.134	0.831	0.738	0.593	0.483	0.175	0.532	0.568	0.466	0.457	0.277
201T	1.06	1.12	0.797	0.995	–	0.358	0.373	0.316	0.35	0.324	0.725	0.889	0.683	0.646	0.611	0.672	0.618	0.447	0.59	0.527
NCI-H358	0.613	0.478	0.339	0.154	0.103	0.172	0.161	0.168	0.133	0.153	0.65	0.514	0.275	0.117	0.107	0.533	0.508	0.358	0.257	0.223
ChaGo-K-1	0.945	1.07	0.884	0.888	0.718	0.247	0.274	0.248	0.429	0.233	0.62	0.545	0.574	0.459	0.613	0.93	0.879	0.648	0.842	0.788
LOU-NH91	0.971	0.82	0.644	0.542	0.504	0.383	0.439	0.426	0.43	0.424	0.706	0.715	0.471	0.46	0.408	0.791	0.728	0.717	0.664	0.496
HOP-62	1.16	1.08	0.982	1.14	0.92	0.323	0.31	0.206	–	0.241	0.849	0.914	0.799	0.776	0.775	0.672	0.525	0.559	–	0.443
NCI-H1915	1.08	1.08	1.08	1.05	0.709	0.495	0.495	0.44	0.412	0.516	0.697	0.67	0.294	0.595	0.424	0.791	0.716	0.638	0.685	0.653
NCI-H322M	0.863	0.958	–	0.408	0.361	0.642	0.652	0.598	0.448	0.371	0.515	0.592	0.519	0.365	0.307	0.49	0.544	0.503	0.409	0.437
NCI-H1651	0.789	0.867	0.715	0.593	0.464	0.619	0.629	0.565	0.57	0.516	0.769	0.838	0.627	0.564	0.337	0.503	0.521	0.416	0.328	0.246
RERF-LC-KJ	0.924	0.992	0.896	0.872	0.43	0.484	0.483	0.505	0.477	0.405	0.539	–	0.477	0.434	0.326	1.06	1.1	0.741	0.734	0.679
NCI-H1993	0.82	0.662	0.6	0.567	0.657	0.398	0.543	0.533	0.564	0.486	0.387	0.576	0.655	0.643	0.674	0.762	0.745	0.624	0.465	0.581
NCI-H460	1.12	1.15	0.862	1.04	0.87	0.062	0.0586	0.063	0.0641	0.0813	0.61	0.891	0.596	0.419	0.0301	0.654	0.718	0.639	0.54	0.265

Cell Line	relative viability ([1]; first compound 0.01 µM)	relative viability ([1]; first compound 0.03162 µM)	relative viability ([1]; first compound 0.1 µM)	relative viability ([1]; first compound 0.3162 µM)	relative viability ([1]; first compound 1 µM)	relative viability ([2]; first compound 0.01 µM)	relative viability ([2]; first compound 0.03162 µM)	relative viability ([2]; first compound 0.1 µM)	relative viability ([2]; first compound 0.3162 µM)	relative viability ([2]; first compound 1 µM)	relative viability ([3]; first compound 0.01 µM)	relative viability ([3]; first compound 0.03162 µM)	relative viability ([3]; first compound 0.1 µM)	relative viability ([3]; first compound 0.3162 µM)	relative viability ([3]; first compound 1 µM)	relative viability ([4]; first compound 0.01 µM)	relative viability ([4]; first compound 0.03162 µM)	relative viability ([4]; first compound 0.1 µM)	relative viability ([4]; first compound 0.3162 µM)	relative viability ([4]; first compound 1 µM)
NCI-H838	1.12	1.08	0.885	–	0.656	0.247	0.268	0.242	0.239	0.243	0.463	0.492	0.419	0.325	0.226	0.944	1.08	0.968	–	0.78
NCI-H1355	–	–	0.874	0.842	0.366	1.07	1.03	0.951	1.02	0.821	0.402	0.379	0.346	0.358	0.277	0.904	0.754	0.642	0.706	0.538
NCI-H596	0.89	0.986	–	0.798	0.622	0.523	0.529	0.472	0.493	0.488	0.771	0.822	0.686	0.704	0.386	1.07	1.27	0.745	1.1	0.805
NCI-H2405	1.06	1.08	0.922	1.04	0.57	1.19	1.16	1.02	1.04	–	0.666	0.653	0.566	0.69	0.496	0.818	0.799	0.751	0.635	0.446
LCLC-97TM1	1.07	0.952	0.829	0.824	0.483	0.186	0.209	0.138	–	0.185	0.615	0.537	0.547	0.346	0.27	0.224	0.251	0.218	0.207	0.304
EMC-BAC-2	1.19	0.99	0.669	–	0.54	0.473	0.495	0.435	0.451	0.475	0.36	0.456	0.344	0.361	0.291	1.19	1.19	1	1.08	0.974
NCI-H1975	–	1.02	0.972	0.421	0.174	0.295	0.336	0.284	0.25	0.178	0.826	0.921	0.629	0.25	0.177	0.855	0.847	0.619	0.362	0.303
BEN	0.66	0.631	0.822	0.657	0.498	0.971	0.929	0.751	0.778	0.623	0.286	0.304	0.275	0.283	0.286	0.745	0.804	0.628	0.571	0.596
NCI-H2347	0.686	0.909	–	0.586	0.711	0.423	0.479	0.396	0.495	0.449	0.453	0.573	–	0.434	0.32	0.727	0.733	0.533	0.756	0.457
NCI-H650	1.1	1.03	0.952	0.873	0.884	0.98	1.11	0.932	0.831	0.773	0.546	0.544	0.553	0.46	0.456	1.02	1.09	–	1	1.3
CAL-12T	1.04	1.12	0.979	0.824	0.284	1.38	1.17	0.946	0.798	0.329	0.614	0.719	0.345	0.237	0.197	0.616	0.695	0.556	–	0.646
EPLC-272H	–	0.431	0.45	0.419	0.194	0.27	0.356	0.262	0.281	0.233	–	0.294	–	0.24	0.194	0.209	0.193	0.112	0.181	0.205
LCLC-103H	0.926	0.805	0.704	0.697	0.496	0.509	0.489	0.445	0.488	0.484	0.562	0.48	0.47	0.463	0.394	0.818	0.812	0.655	0.857	0.68
NCI-H3122	1.05	0.985	0.94	0.958	0.171	0.197	0.214	0.179	0.551	0.187	1.03	0.987	0.9	0.9	0.154	1.05	1	0.88	1.01	0.438
HCC-15	1.07	1.21	–	0.885	0.66	0.205	0.222	0.233	0.227	0.205	0.707	0.794	0.6	0.559	0.511	1.46	1.23	1.18	1.09	1.24
NCI-H1944	0.878	0.929	–	0.599	0.327	0.642	0.563	–	0.555	0.439	0.467	0.419	0.337	0.286	0.289	0.584	0.621	0.4	0.505	0.313
